The text below walks through data of US20070254853A1, “Compositions and Methods for Promotion of Wound Healing” (BOARD OF REGENTS, THE UNIVERSITY OF TEXAS SYSTEM, priority 2006, published 2007).

Molecules are shown by their SMILES.

In series [1] the test system is 8 mm full thickness dorsal skin punch wound. Description: Sirolimus dose response on healing of a full thickness skin punch wound. Format: in vivo, Balb/c mice. On the procedure: Sirolimus is an effective immunosuppressant that has been associated with delayed wound healing. On a full thickness skin murine model of immunosuppression and decreased wound healing, the Sirolimus dose that delayed wound healing was first determined.
Methods: For 2 weeks Balb/c mice were gavage-fed saline, 4 mg/kg, 8 mg/kg or 12 mg/kg Sirolimus (10 per group). After drug loading, an 8 mm in diameter full thickness dorsal skin punch wound was made in each mouse. Every second day digital pictures of the wound were taken and analyzed. After determining the effective Sirolimus dose that causes decreased wound healing and immunosuppression, 40 Balb/c mice were gavaged with 8 mg/kg of Sirolimus every other day. After establishing the punch wounds, the mono and dinucleotides were applied topically daily. The topical treatment was applied using the following formulations (10 mice per group): a mixture of mono and dinucleotides derived from RNA in 0.025%, 0.25% and 2.5% concentrations and one group with KY jelly as control. Every second day a digital picture was taken and wound size measured. P2Y2 receptor expression was qualitatively assessed using immunohistology and receptor specific antibodies. T-test was used to compare the groups.

Series [2] has as its system 4 mm punch wound on the dorsal surface. Description: Topical applications for wound healing in mice (4 mm punch wound, three dietary groups). As to conditions: 100 μM topical, in place of uracil; with or without CCM; four times over two weeks. The format is in vivo, Balb/c mice. From the text: Balb/c mice were divided into three dietary groups (F=normal mouse chow; NF=nucleotide free mouse chow; and NFR=nucleotide free mouse chow supplemented with yeast RNA). Each group was fed before initiation of wounds. After 4 weeks of feeding, a 4 mm punch wound was created on the dorsal surface of each mouse, using a 4 mm biopsy punch. The wounds were coated with four different topical agents: (1) saline; (2) uracil ([…]); (3) saline+CCM; and (4) Uracil+CCM (CCM=crosslinked collagen mesh). CCM (“Collagen Permeable Membrane”) from Accurate Chemical & Scientific Corporation, Catalog No. YIC 152299. Four mm size circles were soaked with appropriate nucleotide or saline solution (4 mm punch wounds) and used to dress the wounds.
Twelve groups were formed from these combinations (n=3). Mice were continued on their respective diets. Wounds were observed visually and photographed at four different times during the period of two weeks. These studies were repeated using a 100 μM concentration of inosine in place of uracil as the topical agent.

Turning to `CO[C@H]1C[C@@H]2CC[C@@H](C)[C@@](O)(O2)C(=O)C(=O)N2CCCC[C@H]2C(=O)O[C@H]([C@H](C)C[C@@H]2CC[C@@H](O)[C@H](OC)C2)CC(=O)[C@H](C)/C=C(\C)[C@@H](O)[C@@H](OC)C(=O)[C@H](C)C[C@H](C)/C=C/C=C/C=C/1C` [Sirolimus], the “effect on wound healing” value was “no effect on wound healing” in series [1] (4 mg/kg gavage for 2 weeks); “delayed wound healing in a significant manner” in series [1] (8 mg/kg gavage for 2 weeks, day 4 and after); “delayed wound healing in a significant manner” in series [1] (12 mg/kg gavage for 2 weeks, day 4 and after).

For the molecule `OC[C@H]1O[C@@H](n2cnc3c(O)ncnc32)[C@H](O)[C@@H]1O` [inosine], the “wound healing, wounds observed visually and photographed” value in series [2] is listed as “no significant differences from that which was seen with the uracil”.
